Test results published in article PMC5218480 (PLoS ONE, 2017).

Tested on: MV-4-11 cells
Experiment: Gene expression microarray analysis (Affymetrix PrimeView) and GSEA
Assay type: cell-based, human
Set-up: RFU PODN (11730768_x_at) / Fold change /veh PODN (11730768_x_at) / RFU LINC00158 (11744669_a_at) / Fold change /veh LINC00158 (11744669_a_at) / RFU DUSP10 (11751237_a_at) / Fold change /veh DUSP10 (11751237_a_at) / RFU ID3 (11757404_x_at) / Fold change /veh ID3 (11757404_x_at) / RFU PLEKHG5 (11737974_s_at) / Fold change /veh PLEKHG5 (11737974_s_at) / RFU LRRC4B (11730491_at) / Fold change /veh LRRC4B (11730491_at) / RFU GIMAP4 (11747438_a_at) / Fold change /veh GIMAP4 (11747438_a_at) / RFU KRT8 (11758183_x_at) / Fold change /veh KRT8 (11758183_x_at) / RFU CNN1 (11734310_a_at) / Fold change /veh CNN1 (11734310_a_at) / RFU VPS37D (11726825_at) / Fold change /veh VPS37D (11726825_at) / RFU C10orf10 (11716522_x_at) / Fold change /veh C10orf10 (11716522_x_at) / RFU KIR2DL2 /// KIR2DL4 /// KIR2DL5A /// KIR2DL5B /// KIR2DS1 /// KIR2DS2 /// KIR2DS3 /// KIR2DS4 /// KIR3DL3 /// KIR3DL3 /// KIR3DS1 (11738374_at) / Fold change /veh KIR2DL2 /// KIR2DL4 /// KIR2DL5A /// KIR2DL5B /// KIR2DS1 /// KIR2DS2 /// KIR2DS3 /// KIR2DS4 /// KIR3DL3 /// KIR3DL3 /// KIR3DS1 (11738374_at) / RFU C1QL1 (11718748_at) / Fold change /veh C1QL1 (11718748_at) / RFU TMPRSS4 (11747572_a_at) / Fold change /veh TMPRSS4 (11747572_a_at) / RFU HAMP (11756126_x_at) / Fold change /veh HAMP (11756126_x_at) / RFU RNFT2 (11725882_a_at) / Fold change /veh RNFT2 (11725882_a_at) / RFU NR4A2 (11747474_a_at) / Fold change /veh NR4A2 (11747474_a_at) / RFU ABCC12 (11746883_a_at) / Fold change /veh ABCC12 (11746883_a_at) / RFU TMEM136 (11760407_x_at) / Fold change /veh TMEM136 (11760407_x_at) / RFU CLDN22 /// WWC2 (11732394_at) / Fold change /veh CLDN22 /// WWC2 (11732394_at) / RFU HLA-DPB1 (11760878_x_at) / Fold change /veh HLA-DPB1 (11760878_x_at) / RFU SPINT1 (11716480_a_at) / Fold change /veh SPINT1 (11716480_a_at) / RFU GAP43 (11754022_s_at) / Fold change /veh GAP43 (11754022_s_at) / RFU A4GNT (11735810_at) / Fold change /veh A4GNT (11735810_at) / RFU PRB3 (11715151_x_at) / Fold change /veh PRB3 (11715151_x_at) / RFU TUBB4B (11761932_at) / Fold change /veh TUBB4B (11761932_at) / RFU CAPN14 (11732068_a_at) / Fold change /veh CAPN14 (11732068_a_at) / RFU TMCC2 (11721928_a_at) / Fold change /veh TMCC2 (11721928_a_at) / RFU IRGQ (11745062_a_at) / Fold change /veh IRGQ (11745062_a_at) / RFU FAM174B (11720279_a_at) / Fold change /veh FAM174B (11720279_a_at) / RFU TMPRSS4 (11748680_a_at) / Fold change /veh TMPRSS4 (11748680_a_at) / RFU FAM212B (11763350_a_at) / Fold change /veh FAM212B (11763350_a_at) / RFU PLEKHG5 (11743358_a_at) / Fold change /veh PLEKHG5 (11743358_a_at) / RFU ZSCAN30 (11745921_a_at) / Fold change /veh ZSCAN30 (11745921_a_at) / RFU CMKLR1 (11741424_a_at) / Fold change /veh CMKLR1 (11741424_a_at) / RFU LOC101060620 /// MAPK8IP1 (11723275_at) / Fold change /veh LOC101060620 /// MAPK8IP1 (11723275_at) / RFU SPTSSB (11747773_x_at) / Fold change /veh SPTSSB (11747773_x_at) / RFU PRSS12 (11739890_at) / Fold change /veh PRSS12 (11739890_at) / RFU BIN1 (11741810_x_at) / Fold change /veh BIN1 (11741810_x_at) / RFU WNT11 (11732464_a_at) / Fold change /veh WNT11 (11732464_a_at) / RFU C10orf10 (11716521_a_at) / Fold change /veh C10orf10 (11716521_a_at) / RFU C5orf56 (11738089_at) / Fold change /veh C5orf56 (11738089_at) / RFU CYB561 (11721691_x_at) / Fold change /veh CYB561 (11721691_x_at) / RFU ANKRD19P (11752326_a_at) / Fold change /veh ANKRD19P (11752326_a_at) / RFU OR2T12 /// OR2T33 /// OR2T8 (11738714_s_at) / Fold change /veh OR2T12 /// OR2T33 /// OR2T8 (11738714_s_at) / RFU VCAN (11748164_a_at) / Fold change /veh VCAN (11748164_a_at) / RFU JSRP1 (11732532_at) / Fold change /veh JSRP1 (11732532_at) / RFU KRTAP10-11 (11738290_x_at) / Fold change /veh KRTAP10-11 (11738290_x_at) / RFU MYO3A (11730013_a_at) / Fold change /veh MYO3A (11730013_a_at) / RFU EBF3 (11725865_a_at) / Fold change /veh EBF3 (11725865_a_at) / RFU CAMK2N1 (11719241_x_at) / Fold change /veh CAMK2N1 (11719241_x_at) / RFU C5orf56 (11738088_a_at) / Fold change /veh C5orf56 (11738088_a_at) / RFU OLFML3 (11715873_a_at) / Fold change /veh OLFML3 (11715873_a_at) / RFU LOC100653217 /// NTM (11731650_a_at) / Fold change /veh LOC100653217 /// NTM (11731650_a_at) / RFU MAPK11 (11762145_a_at) / Fold change /veh MAPK11 (11762145_a_at) / RFU FIZ1 (11724087_x_at) / Fold change /veh FIZ1 (11724087_x_at) / RFU OASL (11726364_x_at) / Fold change /veh OASL (11726364_x_at) / RFU SOX15 (11748057_x_at) / Fold change /veh SOX15 (11748057_x_at) / RFU CD79A (11719716_a_at) / Fold change /veh CD79A (11719716_a_at) / RFU HIST1H1D (11736915_at) / Fold change /veh HIST1H1D (11736915_at) / RFU CASKIN2 (11723855_a_at) / Fold change /veh CASKIN2 (11723855_a_at) / RFU LOC730098 (11760151_x_at) / Fold change /veh LOC730098 (11760151_x_at) / RFU OR4N2 (11742367_at) / Fold change /veh OR4N2 (11742367_at) / RFU PRRT2 (11749266_a_at) / Fold change /veh PRRT2 (11749266_a_at) / RFU SNX32 (11753110_a_at) / Fold change /veh SNX32 (11753110_a_at) / RFU CDHR5 (11726645_a_at) / Fold change /veh CDHR5 (11726645_a_at) / RFU RCAN1 (11760418_a_at) / Fold change /veh RCAN1 (11760418_a_at) / RFU FAM167A (11723789_a_at) / Fold change /veh FAM167A (11723789_a_at) / RFU FAM26E (11764081_at) / Fold change /veh FAM26E (11764081_at) / RFU ISYNA1 (11749810_s_at) / Fold change /veh ISYNA1 (11749810_s_at) / RFU ACY1 (11761880_at) / Fold change /veh ACY1 (11761880_at) / RFU 11764098_at / Fold change /veh 11764098_at / RFU SAMD14 (11745864_x_at) / Fold change /veh SAMD14 (11745864_x_at) / RFU NPB (11741838_a_at) / Fold change /veh NPB (11741838_a_at) / RFU TMPRSS6 (11731388_a_at) / Fold change /veh TMPRSS6 (11731388_a_at) / RFU KRTAP10-2 (11738614_at) / Fold change /veh KRTAP10-2 (11738614_at) / RFU ARHGAP8 /// PRR5-ARHGAP8 (11727945_x_at) / Fold change /veh ARHGAP8 /// PRR5-ARHGAP8 (11727945_x_at) / RFU KRTAP5-7 /// NADSYN1 (11734609_at) / Fold change /veh KRTAP5-7 /// NADSYN1 (11734609_at) / RFU RASL12 (11751679_a_at) / Fold change /veh RASL12 (11751679_a_at) / RFU CDKN2B (11736163_a_at) / Fold change /veh CDKN2B (11736163_a_at) / RFU PRF1 (11729649_at) / Fold change /veh PRF1 (11729649_at) / RFU, ZNF638 /// ZNF638-IT1 / Fold change vs veh, ZNF638 /// ZNF638-IT1 / RFU, PANK3 / Fold change vs veh, PANK3 / RFU, SH3YL1 / Fold change vs veh, SH3YL1 / RFU, ZEB2 / Fold change vs veh, ZEB2 / RFU, NRIP1 / Fold change vs veh, NRIP1 / RFU, PTTG1IP / Fold change vs veh, PTTG1IP / RFU, CAPN2 / Fold change vs veh, CAPN2 / RFU, MED14 / Fold change vs veh, MED14 / RFU, SNORA58 / Fold change vs veh, SNORA58 / RFU, C1orf63 / Fold change vs veh, C1orf63 / RFU, LRRFIP1 / Fold change vs veh, LRRFIP1 / RFU, NDUFAF7 / Fold change vs veh, NDUFAF7 / RFU, SLC12A2 / Fold change vs veh, SLC12A2 / RFU, IBTK / Fold change vs veh, IBTK / RFU, ESF1 / Fold change vs veh, ESF1 / Fold change vs veh, TMEM50B / RFU, TAOK1 / Fold change vs veh, TAOK1 / RFU, ACBD3 / Fold change vs veh, ACBD3 / RFU, TMA16 / Fold change vs veh, TMA16 / RFU, RWDD3 / Fold change vs veh, RWDD3 / RFU, BCAT1 / Fold change vs veh, BCAT1 / RFU, EDEM3 / Fold change vs veh, EDEM3 / RFU, TMEM33 / Fold change vs veh, TMEM33 / RFU, WDR75 / Fold change vs veh, WDR75 / RFU, AHCTF1 / Fold change vs veh, AHCTF1 / RFU, TFRC / Fold change vs veh, TFRC / RFU, ZDHHC17 / Fold change vs veh, ZDHHC17 / RFU, NOM1 / Fold change vs veh, NOM1 / RFU, ARL8B / Fold change vs veh, ARL8B / RFU, ZBTB11 / Fold change vs veh, ZBTB11 / RFU, TAMM41 / Fold change vs veh, TAMM41 / RFU, KIAA1704 /// LOC100996395 / Fold change vs veh, KIAA1704 /// LOC100996395 / RFU, ING1 / Fold change vs veh, ING1 / RFU, TRMT61B / Fold change vs veh, TRMT61B / RFU, FUBP3 / Fold change vs veh, FUBP3 / RFU, TP53 / Fold change vs veh, TP53 / RFU, TNKS2 / Fold change vs veh, TNKS2 / RFU, ZFP14 / Fold change vs veh, ZFP14 / RFU, ACTR2 / Fold change vs veh, ACTR2 / RFU, PPP3R1 / Fold change vs veh, PPP3R1 / RFU, PIK3R1 / Fold change vs veh, PIK3R1 / RFU, HNRNPA1 / Fold change vs veh, HNRNPA1 / RFU, RNF170 / Fold change vs veh, RNF170 / RFU, ZNF28 / Fold change vs veh, ZNF28 / RFU, RNGTT / Fold change vs veh, RNGTT / RFU, OGT / Fold change vs veh, OGT / RFU, BRD1 / Fold change vs veh, BRD1 / RFU, MARS / Fold change vs veh, MARS / RFU, ZNF655 / Fold change vs veh, ZNF655 / RFU, FAHD1 / Fold change vs veh, FAHD1 / RFU, BDP1 / Fold change vs veh, BDP1 / RFU, LRRCC1 / Fold change vs veh, LRRCC1 / RFU, ARID1A / Fold change vs veh, ARID1A / RFU, ZNF146 / Fold change vs veh, ZNF146 / RFU, ZNF330 / Fold change vs veh, ZNF330 / RFU, GPN3 / Fold change vs veh, GPN3 / RFU, C9orf123 / Fold change vs veh, C9orf123 / RFU, N4BP2L2 / Fold change vs veh, N4BP2L2 / RFU, ARFIP1 / Fold change vs veh, ARFIP1 / RFU, FAM179B / Fold change vs veh, FAM179B / RFU, BCL10 / Fold change vs veh, BCL10 / RFU, UHRF1BP1L / Fold change vs veh, UHRF1BP1L / RFU, BET1 / Fold change vs veh, BET1 / RFU, CNOT2 / Fold change vs veh, CNOT2 / RFU, ZNF268 / Fold change vs veh, ZNF268 / Fold change vs veh, ZNF507 / RFU, DGCR2 / Fold change vs veh, DGCR2 / RFU, WDSUB1 / Fold change vs veh, WDSUB1 / Fold change vs veh, HSP90B1 /// MIR3652 / RFU, ADSS / Fold change vs veh, ADSS / RFU, GK / Fold change vs veh, GK / RFU, ZNF148 / Fold change vs veh, ZNF148 / RFU, TAF9 / Fold change vs veh, TAF9 / RFU, SLC1A5 / Fold change vs veh, SLC1A5 / RFU, SLMO2 / Fold change vs veh, SLMO2 / RFU, ABCC4 / Fold change vs veh, ABCC4 / RFU, LOC101060439 /// RAP1B / Fold change vs veh, LOC101060439 /// RAP1B / RFU, RFX7 / Fold change vs veh, RFX7 / RFU, GTPBP10 / Fold change vs veh, GTPBP10 / RFU, CNEP1R1 / Fold change vs veh, CNEP1R1 / RFU, BIVM-ERCC5 /// ERCC5 / Fold change vs veh, BIVM-ERCC5 /// ERCC5 / RFU, ILF3 / Fold change vs veh, ILF3 / RFU 11762660_at / Fold change /veh 11762660_at / RFU VCAN (11757783_s_at) / Fold change /veh VCAN (11757783_s_at) / RFU DDX43 (11728927_at) / Fold change /veh DDX43 (11728927_at) / RFU KRT8 (11758188_x_at) / Fold change /veh KRT8 (11758188_x_at) / RFU NKD1 (11759106_at) / Fold change /veh NKD1 (11759106_at) / RFU SRD5A1 (11742802_a_at) / Fold change /veh SRD5A1 (11742802_a_at) / RFU TPSAB1 /// TPSB2 (11721975_s_at) / Fold change /veh TPSAB1 /// TPSB2 (11721975_s_at) / RFU GSTM3 (11746129_a_at) / Fold change /veh GSTM3 (11746129_a_at) / RFU IL23R (11737362_x_at) / Fold change /veh IL23R (11737362_x_at) / RFU TMEM51 (11727254_a_at) / Fold change /veh TMEM51 (11727254_a_at) / RFU PIWIL2 (11732686_x_at) / Fold change /veh PIWIL2 (11732686_x_at) / RFU ORM1 (11744905_x_at) / Fold change /veh ORM1 (11744905_x_at) / RFU CCDC152 (11743942_at) / Fold change /veh CCDC152 (11743942_at) / RFU ECM1 (11717891_a_at) / Fold change /veh ECM1 (11717891_a_at) / RFU IL23R (11748794_a_at) / Fold change /veh IL23R (11748794_a_at) / RFU TNFAIP8L3 (11732012_x_at) / Fold change /veh TNFAIP8L3 (11732012_x_at) / RFU MBOAT4 (11741988_at) / Fold change /veh MBOAT4 (11741988_at) / RFU 11764193_at / Fold change /veh 11764193_at / RFU TMEM53 (11763286_at) / Fold change /veh TMEM53 (11763286_at) / RFU MAGEB2 (11727129_at) / Fold change /veh MAGEB2 (11727129_at) / RFU TMEM200A (11744735_a_at) / Fold change /veh TMEM200A (11744735_a_at) / RFU CCDC152 (11751479_a_at) / Fold change /veh CCDC152 (11751479_a_at) / RFU FAM211A (11726209_a_at) / Fold change /veh FAM211A (11726209_a_at) / RFU RGS16 (11746705_a_at) / Fold change /veh RGS16 (11746705_a_at) / RFU VCAN (11755009_s_at) / Fold change /veh VCAN (11755009_s_at) / RFU RHOB (11743442_s_at) / Fold change /veh RHOB (11743442_s_at) / RFU RGS16 (11720943_a_at) / Fold change /veh RGS16 (11720943_a_at) / RFU RGS16 (11720944_at) / Fold change /veh RGS16 (11720944_at) / RFU, VPS4B / Fold change vs veh, VPS4B / RFU, CREB1 / Fold change vs veh, CREB1 / RFU, DNAJC13 / Fold change vs veh, DNAJC13 / RFU, GNAQ / Fold change vs veh, GNAQ / RFU, CDK5R1 / Fold change vs veh, CDK5R1 / RFU, ZRANB3 / Fold change vs veh, ZRANB3 / RFU, CUL4A / Fold change vs veh, CUL4A / RFU, CCNY / Fold change vs veh, CCNY / RFU, UFL1 / Fold change vs veh, UFL1 / RFU, COG3 / Fold change vs veh, COG3 / RFU, DIAPH2 / Fold change vs veh, DIAPH2 / RFU, SKA2 / Fold change vs veh, SKA2 / RFU, AFF3 / Fold change vs veh, AFF3 / RFU, LMF1 / Fold change vs veh, LMF1 / RFU, IPO11 / Fold change vs veh, IPO11 / RFU, DFFB / Fold change vs veh, DFFB / RFU, FOXP1 / Fold change vs veh, FOXP1 / RFU, CARD8 / Fold change vs veh, CARD8 / RFU, STRN3 / Fold change vs veh, STRN3 / RFU, ADK / Fold change vs veh, ADK / RFU, RASSF2 / Fold change vs veh, RASSF2 / RFU, WIPF1 / Fold change vs veh, WIPF1 / RFU, LARP1B / Fold change vs veh, LARP1B / RFU, RASA1 / Fold change vs veh, RASA1 / RFU, RB1 / Fold change vs veh, RB1 / RFU, PPFIA1 / Fold change vs veh, PPFIA1 / RFU, MAT2A / Fold change vs veh, MAT2A / RFU, CCT5 / Fold change vs veh, CCT5 / RFU, WDR92 / Fold change vs veh, WDR92 / RFU, CUX1 / Fold change vs veh, CUX1 / RFU, TTC7A / Fold change vs veh, TTC7A / RFU, TMEM135 / Fold change vs veh, TMEM135 / RFU, DEPTOR / Fold change vs veh, DEPTOR / RFU, CPM / Fold change vs veh, CPM / RFU, DNAJB6 / Fold change vs veh, DNAJB6 / RFU, CACNA2D3 / Fold change vs veh, CACNA2D3 / RFU, DTX4 / Fold change vs veh, DTX4 / RFU, TFCP2 / Fold change vs veh, TFCP2 / RFU, GMCL1 /// GMCL1P1 / Fold change vs veh, GMCL1 /// GMCL1P1 / RFU, AEBP2 / Fold change vs veh, AEBP2 / RFU, SNHG1 /// SNORD22 /// SNORD25 /// SNORD26 /// SNORD27 /// SNORD28 /// SNORD29 /// SNORD31 / Fold change vs veh, SNHG1 /// SNORD22 /// SNORD25 /// SNORD26 /// SNORD27 /// SNORD28 /// SNORD29 /// SNORD31 / Fold change (Aza/veh), C12orf56 (ProbeSet 11735607_a_at) / Fold change (ACY-1035/veh), C12orf56 (ProbeSet 11735607_a_at) / Fold change (Aza/veh), FGFR1OP (ProbeSet 11751329_s_at) / Fold change (ACY-1035/veh), FGFR1OP (ProbeSet 11751329_s_at) / Fold change (Aza/veh), VPS36 (ProbeSet 11739960_a_at) / Fold change (ACY-1035/veh), VPS36 (ProbeSet 11739960_a_at) / RFU SYPL1 (11715823_x_at) / Fold change /veh SYPL1 (11715823_x_at) / RFU IGFBP7 (11715501_s_at) / Fold change /veh IGFBP7 (11715501_s_at) / RFU REEP3 (11722064_at) / Fold change /veh REEP3 (11722064_at) / RFU IGLL1 (11728026_x_at) / Fold change /veh IGLL1 (11728026_x_at): dose or concentration left out as unconfirmed
Conditions: ProbeSet 11745260_x_at; LIST B

## Nc1ncn([C@@H]2O[C@H](CO)[C@@H](O)[C@H]2O)c(=O)n1 [azacitidine]
  RFU, SLC12A2: 29.09 RFU
